The assay has as its target T1, Human PD-L1/PD-1 (Homo sapiens, UniProt Q9NZQ7).
T1 construct: TVMV protease cleavage site (C); made in house; host or cells: HEK293T cells
In words: HTRF Human PD-L1/PD-1 binding assay (PD-1-Ig/PD-L1-His). The following applies: PD-L1-His 10 nM, PD-1-Ig 20 nM; class symbol; read-out: HTRF Human PD-L1/PD-1 Binding Assay IC50 Range. The method in brief:
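Soluble HEK293T-expressed proteins: hPD-L1-His 10 nM, hPD-1-Ig 20 nM final. Cpd + PD-L1 15 min, + PD-1 15 min, + Eu anti-Ig 1 nM/APC anti-His 20 nM 30 min. Buffer dPBS, 0.1% BSA, 0.05% Tween-20. TR-FRET 665/620.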
For orientation: TR-FRET usually uses a lanthanide donor and a delayed reading to cut background.

Data on 15 compounds can be found in patent US10538555B2, “Macrocyclic inhibitors of the PD-1/PD-L1 and CD80(B7-1)/PD-L1 protein/protein interactions” (BRISTOL-MYERS SQUIBB COMPANY, priority 2014, dated 2020).

The structures appear in SMILES notation. Where a SMILES comes first, the peptide text is derived from it. Bridges are numbered along the chain shown (N, C = ends). [ ]: non-standard residue; d: D form. Phe(3,4,5-F3) = N[C@@H](Cc1cc(F)c(F)c(F)c1)C(=O)O; NMePhe(4-Me) = CN[C@@H](Cc1ccc(C)cc1)C(=O)O; NMePhe(4-F) = CN[C@@H](Cc1ccc(F)cc1)C(=O)O; Phe(4-F) = N[C@@H](Cc1ccc(F)cc1)C(=O)O; NMeF = CN[C@@H](Cc1ccccc1)C(=O)O; dHyp = O=C(O)[C@H]1C[C@H](O)CN1; NMeNle = CCCC[C@H](NC)C(=O)O; Orn = NCCC[C@H](N)C(=O)O; Dab = NCC[C@H](N)C(=O)O

T1 sequence (Q9NZQ7 with tags, fused parts or gaps): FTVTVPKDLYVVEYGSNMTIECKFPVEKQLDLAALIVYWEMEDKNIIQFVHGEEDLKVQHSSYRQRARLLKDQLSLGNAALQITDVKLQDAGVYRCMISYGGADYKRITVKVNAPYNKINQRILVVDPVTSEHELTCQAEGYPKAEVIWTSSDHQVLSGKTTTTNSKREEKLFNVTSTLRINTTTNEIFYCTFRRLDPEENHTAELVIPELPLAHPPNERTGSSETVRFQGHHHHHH

On to `CCCC[C@H]1C(=O)N2CCC[C@@H]2C(=O)N[C@@H](CC(=O)O)C(=O)N[C@@H](C(C)C)C(=O)N(C)[C@@H](Cc2ccccc2)C(=O)N[C@@H](CCN)C(=O)N2CCC[C@@H]2C(=O)N[C@@H](Cc2c[nH]c3ccccc23)C(=O)N[C@@H](Cc2ccc(O)cc2)C(=O)N[C@@H](CC(C)C)C(=O)N[C@H](C(=O)NCC(N)=O)CSCC(=O)N[C@@H](Cc2ccc(F)cc2)C(=O)N(C)[C@@H](Cc2ccccc2)C(=O)N1C` [Example 10105] ({CH2CO}-[Phe(4-F)][NMeF][NMeNle][dP]DV[NMeF][Dab][dP]WYLCG-NH2; thioether N-13), for which the IC50 was 1 to 9.9 nM. Under `CCCC[C@H]1C(=O)N2CCC[C@@H]2C(=O)N[C@@H](CC(=O)O)C(=O)N[C@@H](C(C)C)C(=O)N(C)[C@@H](Cc2ccccc2)C(=O)N[C@@H](CC(=O)O)C(=O)N2CCC[C@@H]2C(=O)N[C@@H](Cc2c[nH]c3ccccc23)C(=O)N[C@@H](Cc2ccc(O)cc2)C(=O)N[C@@H](CC(C)C)C(=O)N[C@H](C(=O)NCC(N)=O)CSCC(=O)N[C@@H](Cc2ccc(F)cc2)C(=O)N(C)[C@@H](Cc2ccccc2)C(=O)N1C` [Example 10106] ({CH2CO}-[Phe(4-F)][NMeF][NMeNle][dP]DV[NMeF]D[dP]WYLCG-NH2; thioether N-13) stands 1 to 9.9 nM; under `CCCC[C@H]1C(=O)N2CCC[C@@H]2C(=O)N[C@@H](CC(=O)O)C(=O)N[C@@H](C(C)C)C(=O)N(C)[C@@H](Cc2ccccc2)C(=O)N[C@@H](CCC(=O)O)C(=O)N2CCC[C@@H]2C(=O)N[C@@H](Cc2c[nH]c3ccccc23)C(=O)N[C@@H](Cc2ccc(O)cc2)C(=O)N[C@@H](CC(C)C)C(=O)N[C@H](C(=O)NCC(N)=O)CSCC(=O)N[C@@H](Cc2ccc(F)cc2)C(=O)N(C)[C@@H](Cc2ccccc2)C(=O)N1C` [Example 10107] ({CH2CO}-[Phe(4-F)][NMeF][NMeNle][dP]DV[NMeF]E[dP]WYLCG-NH2; thioether N-13), 1 to 9.9 nM. Under `CCCC[C@H]1C(=O)N2CCC[C@@H]2C(=O)N[C@@H](CC(=O)O)C(=O)N[C@@H](C(C)C)C(=O)N(C)[C@@H](Cc2ccc(F)cc2)C(=O)N[C@@H](CCCN)C(=O)N2CCC[C@@H]2C(=O)N[C@@H](Cc2c[nH]c3ccccc23)C(=O)N[C@@H](Cc2ccc(O)cc2)C(=O)N[C@@H](CC(C)C)C(=O)N[C@H](C(=O)NCC(N)=O)CSCC(=O)N[C@@H](Cc2ccc(F)cc2)C(=O)N(C)[C@@H](Cc2ccccc2)C(=O)N1C` [Example 10108] ({CH2CO}-[Phe(4-F)][NMeF][NMeNle][dP]DV[NMePhe(4-F)][Orn][dP]WYLCG-NH2; thioether N-13) stands 1 to 9.9 nM.

`CCCC[C@H]1C(=O)N2CCC[C@@H]2C(=O)N[C@@H](CC(=O)O)C(=O)N[C@@H](C(C)C)C(=O)N(C)[C@@H](Cc2ccc(F)cc2)C(=O)N[C@@H](CCN)C(=O)N2CCC[C@@H]2C(=O)N[C@@H](Cc2c[nH]c3ccccc23)C(=O)N[C@@H](Cc2ccc(O)cc2)C(=O)N[C@@H](CC(C)C)C(=O)N[C@H](C(=O)NCC(N)=O)CSCC(=O)N[C@@H](Cc2ccc(F)cc2)C(=O)N(C)[C@@H](Cc2ccccc2)C(=O)N1C` [Example 10109] ({CH2CO}-[Phe(4-F)][NMeF][NMeNle][dP]DV[NMePhe(4-F)][Dab][dP]WYLCG-NH2; thioether N-13): the IC50 fell in the range of 10 to 99.9 nM. Under `CCCC[C@H]1C(=O)N2CCC[C@@H]2C(=O)N[C@@H](CC(=O)O)C(=O)N[C@@H](C(C)C)C(=O)N(C)[C@@H](Cc2ccc(F)cc2)C(=O)N[C@@H](CC(=O)O)C(=O)N2CCC[C@@H]2C(=O)N[C@@H](Cc2c[nH]c3ccccc23)C(=O)N[C@@H](Cc2ccc(O)cc2)C(=O)N[C@@H](CC(C)C)C(=O)N[C@H](C(=O)NCC(N)=O)CSCC(=O)N[C@@H](Cc2ccc(F)cc2)C(=O)N(C)[C@@H](Cc2ccccc2)C(=O)N1C` [Example 10110] ({CH2CO}-[Phe(4-F)][NMeF][NMeNle][dP]DV[NMePhe(4-F)]D[dP]WYLCG-NH2; thioether N-13) stands 1 to 9.9 nM; under `CCCC[C@H]1C(=O)N2CCC[C@@H]2C(=O)N[C@@H](CC(=O)O)C(=O)N[C@@H](C(C)C)C(=O)N(C)[C@@H](Cc2ccc(F)cc2)C(=O)N[C@@H](CCC(=O)O)C(=O)N2CCC[C@@H]2C(=O)N[C@@H](Cc2c[nH]c3ccccc23)C(=O)N[C@@H](Cc2ccc(O)cc2)C(=O)N[C@@H](CC(C)C)C(=O)N[C@H](C(=O)NCC(N)=O)CSCC(=O)N[C@@H](Cc2ccc(F)cc2)C(=O)N(C)[C@@H](Cc2ccccc2)C(=O)N1C` [Example 10111] ({CH2CO}-[Phe(4-F)][NMeF][NMeNle][dP]DV[NMePhe(4-F)]E[dP]WYLCG-NH2; thioether N-13), 1 to 9.9 nM. Under `CCCC[C@H]1C(=O)N2CCC[C@@H]2C(=O)N[C@@H](CC(=O)O)C(=O)N[C@@H](C(C)C)C(=O)N(C)[C@@H](Cc2ccc(C)cc2)C(=O)N[C@@H](CCCN)C(=O)N2CCC[C@@H]2C(=O)N[C@@H](Cc2c[nH]c3ccccc23)C(=O)N[C@@H](Cc2ccc(O)cc2)C(=O)N[C@@H](CC(C)C)C(=O)N[C@H](C(=O)NCC(N)=O)CSCC(=O)N[C@@H](Cc2ccc(F)cc2)C(=O)N(C)[C@@H](Cc2ccccc2)C(=O)N1C` [Example 10112] ({CH2CO}-[Phe(4-F)][NMeF][NMeNle][dP]DV[NMePhe(4-Me)][Orn][dP]WYLCG-NH2; thioether N-13) stands 100 to 990 nM.

Turning to `CCCC[C@H]1C(=O)N2CCC[C@@H]2C(=O)N[C@@H](CC(=O)O)C(=O)N[C@@H](C(C)C)C(=O)N(C)[C@@H](Cc2ccc(C)cc2)C(=O)N[C@@H](CCN)C(=O)N2CCC[C@@H]2C(=O)N[C@@H](Cc2c[nH]c3ccccc23)C(=O)N[C@@H](Cc2ccc(O)cc2)C(=O)N[C@@H](CC(C)C)C(=O)N[C@H](C(=O)NCC(N)=O)CSCC(=O)N[C@@H](Cc2ccc(F)cc2)C(=O)N(C)[C@@H](Cc2ccccc2)C(=O)N1C` [Example 10113] ({CH2CO}-[Phe(4-F)][NMeF][NMeNle][dP]DV[NMePhe(4-Me)][Dab][dP]WYLCG-NH2; thioether N-13), the IC50 lay within 100 to 990 nM. With `CCCC[C@H]1C(=O)N2CCC[C@@H]2C(=O)N[C@@H](CC(=O)O)C(=O)N[C@@H](C(C)C)C(=O)N(C)[C@@H](Cc2ccc(C)cc2)C(=O)N[C@@H](CC(=O)O)C(=O)N2CCC[C@@H]2C(=O)N[C@@H](Cc2c[nH]c3ccccc23)C(=O)N[C@@H](Cc2ccc(O)cc2)C(=O)N[C@@H](CC(C)C)C(=O)N[C@H](C(=O)NCC(N)=O)CSCC(=O)N[C@@H](Cc2ccc(F)cc2)C(=O)N(C)[C@@H](Cc2ccccc2)C(=O)N1C` [Example 10114] ({CH2CO}-[Phe(4-F)][NMeF][NMeNle][dP]DV[NMePhe(4-Me)]D[dP]WYLCG-NH2; thioether N-13) the figure was 100 to 990 nM. With `CCCC[C@H]1C(=O)N2CCC[C@@H]2C(=O)N[C@@H](CC(=O)O)C(=O)N[C@@H](C(C)C)C(=O)N(C)[C@@H](Cc2ccc(C)cc2)C(=O)N[C@@H](CCC(=O)O)C(=O)N2CCC[C@@H]2C(=O)N[C@@H](Cc2c[nH]c3ccccc23)C(=O)N[C@@H](Cc2ccc(O)cc2)C(=O)N[C@@H](CC(C)C)C(=O)N[C@H](C(=O)NCC(N)=O)CSCC(=O)N[C@@H](Cc2ccc(F)cc2)C(=O)N(C)[C@@H](Cc2ccccc2)C(=O)N1C` [Example 10115] ({CH2CO}-[Phe(4-F)][NMeF][NMeNle][dP]DV[NMePhe(4-Me)]E[dP]WYLCG-NH2; thioether N-13) the figure was 100 to 990 nM. Under `CCCC[C@H]1C(=O)N2C[C@@H](O)C[C@@H]2C(=O)N[C@@H](CC(=O)O)C(=O)N[C@@H](C(C)C)C(=O)N(C)[C@@H](Cc2ccc(F)cc2)C(=O)N[C@@H](CCC(=O)O)C(=O)N2CCC[C@@H]2C(=O)N[C@@H](Cc2c[nH]c3ccccc23)C(=O)N[C@@H](Cc2ccc(O)cc2)C(=O)N[C@@H](CC(C)C)C(=O)N[C@H](C(=O)NCC(N)=O)CSCC(=O)N[C@@H](Cc2cc(F)c(F)c(F)c2)C(=O)N(C)[C@@H](Cc2ccccc2)C(=O)N1C` [Example 10116] ({CH2CO}-[Phe(3,4,5-F3)][NMeF][NMeNle][dHyp]DV[NMePhe(4-F)]E[dP]WYLCG-NH2; thioether N-13) stands 1 to 9.9 nM; under `CCCC[C@H]1C(=O)N2C[C@@H](O)C[C@@H]2C(=O)N[C@@H](CC(=O)O)C(=O)N[C@@H](C(C)C)C(=O)N(C)[C@@H](Cc2ccc(C)cc2)C(=O)N[C@@H](CCC(=O)O)C(=O)N2CCC[C@@H]2C(=O)N[C@@H](Cc2c[nH]c3ccccc23)C(=O)N[C@@H](Cc2ccc(O)cc2)C(=O)N[C@@H](CC(C)C)C(=O)N[C@H](C(=O)NCC(N)=O)CSCC(=O)N[C@@H](Cc2cc(F)c(F)c(F)c2)C(=O)N(C)[C@@H](Cc2ccccc2)C(=O)N1C` [Example 10117] ({CH2CO}-[Phe(3,4,5-F3)][NMeF][NMeNle][dHyp]DV[NMePhe(4-Me)]E[dP]WYLCG-NH2; thioether N-13), 100 to 990 nM; under `CCCC[C@H]1C(=O)N2C[C@@H](O)C[C@@H]2C(=O)N[C@@H](CC(=O)O)C(=O)N[C@@H](C(C)C)C(=O)N(C)[C@@H](Cc2ccc(F)cc2)C(=O)N[C@@H](CCCN)C(=O)N2CCC[C@@H]2C(=O)N[C@@H](Cc2c[nH]c3ccccc23)C(=O)N[C@@H](Cc2ccc(O)cc2)C(=O)N[C@@H](CC(C)C)C(=O)N[C@H](C(=O)NCC(N)=O)CSCC(=O)N[C@@H](Cc2cc(F)c(F)c(F)c2)C(=O)N(C)[C@@H](Cc2ccccc2)C(=O)N1C` [Example 10118] ({CH2CO}-[Phe(3,4,5-F3)][NMeF][NMeNle][dHyp]DV[NMePhe(4-F)][Orn][dP]WYLCG-NH2; thioether N-13), 1 to 9.9 nM.

For the compound `CCCC[C@H]1C(=O)N2C[C@@H](O)C[C@@H]2C(=O)N[C@@H](CC(=O)O)C(=O)N[C@@H](C(C)C)C(=O)N(C)[C@@H](Cc2ccc(C)cc2)C(=O)N[C@@H](CCCN)C(=O)N2CCC[C@@H]2C(=O)N[C@@H](Cc2c[nH]c3ccccc23)C(=O)N[C@@H](Cc2ccc(O)cc2)C(=O)N[C@@H](CC(C)C)C(=O)N[C@H](C(=O)NCC(N)=O)CSCC(=O)N[C@@H](Cc2cc(F)c(F)c(F)c2)C(=O)N(C)[C@@H](Cc2ccccc2)C(=O)N1C` [Example 10119] ({CH2CO}-[Phe(3,4,5-F3)][NMeF][NMeNle][dHyp]DV[NMePhe(4-Me)][Orn][dP]WYLCG-NH2; thioether N-13), the IC50 fell in the range of 100 to 990 nM.
